Patent US20100152137A1, “Alkylphospholipids as active agents for prevention of plant pathogens” (KTB-Tumorforschungs GMBH, priority 2006, published 2010)
“And” between values parts separate entries of the source, which are not always exact repeats. Equal values may be shown once.

Assays:
[1] = system: single cell culture of Vitis vinifera cv. Pinot noir; test: pH change (alcalinization) in the medium of a single cell culture of grapevine; format: cell-based
Text: A response of plant cells to substances that can induce resistance in plants is to open ion channels in the cell membrane. Thereupon, protons flow into the interior of the cell, which causes alcalinization of the medium surrounding the cell. This temporary alcalinization has been measured.
Greenhouse plants of the variety Pinot noir (Vitis vinifera cv. Pinot noir) served as the starting material. A callus culture was started first from young shoots. Thus, the plant parts were cut into pieces about 1-2 cm in size, washed in 70% (v/v) ethanol and sterilized in 3.5% (w/v) NaOCl solution for about 2 min. The sterilized tissue pieces were transferred to solid MS nutrient medium (Murashige, T. and Skoog, F., Physiol. Plant, 18: 100-127 (1962)) and slightly pushed into the agar, so that the cuts came into contact with the medium. The formation of callus tissue occurred at 23° C. in a phytochamber (16 h of white light 300 μmol m^−2 s^−1; 8 h of dark; >95% relative humidity). At the cuts, calluses formed, which were repeatedly transferred to a new medium in a sterile manner after 4-6 weeks.
Starting from strongly growing callus cultures, single cell cultures were started. Thus, cells were passaged under sterile conditions from callus tissue to liquid MS nutrient medium. The cell cultures were grown in a temperature constant room at 23° C. on a rotary shaker (120 rpm). In regular passage cycles of 4 days, the cell cultures were admixed with 40 ml of new liquid MS nutrient medium and distributed in two equal parts of about 40 ml to two 250 ml Erlenmeyer flasks.
For measuring the pH of the medium, 10 ml of a 2 days old cell culture was added to a small rolled rim vial. The rolled rim vial was placed onto a shaker, and a pH electrode was immersed into the cell culture. The electrode was fixed to be constantly washed round by the cell culture. The revolutions per minute of the shaker was 140 rpm. After the measured pH had stabilized, the substance to be tested was added, and the change of pH was continuously recorded with a plotter.

Plasmopara viticola [2] = test: Grapevine leaf disk test against downy mildew; format: in vivo, Plasmopara viticola on Vitis vinifera cv. Müller-Thurgau; conditions: for Average infestation intensity: five-point scale 1-5, per experiment; for No. of leaf disks at scale point 1 (no sporulation) / No. of leaf disks at scale point 2 / No. of leaf disks at scale point 3 / No. of leaf disks at scale point 4 / No. of leaf disks at scale point 5 (sporulation all over the surface): six days after infection
Procedure: Greenhouse plants of the variety Müller-Thurgau (Vitis vinifera cv. Müller-Thurgau) served as the starting material. Young leaves were sterilized on the surface with 70% (v/v) ethanol. Subsequently, leaf disks of 16 mm in diameter were punched out and placed upside down onto water agar (0.8%) in transparent boxes. One drop (about 60 μl) of an aqueous test solution (concentrations employed, see FIG. 1) was applied 24 h before the infection with the pathogen causing downy mildew (Plasmopara viticola), and the leaf disks were incubated at 25° C. (16 h of white light 300 μmol m^−2 s^−1; 8 h of dark) and >95% relative humidity. After 24 h, the drop was removed and replaced by a drop containing spores of the pathogen (about 50 μl of an aqueous suspension containing 2×10^5 sporangia/mil). The infestation intensity was determined six days after the infection.
The infestation intensity was determined by means of a five-point scale ranging from 1 (no sporulation) to 5 (sporulation all over the surface). For each substance and concentration, 10 leaf disks per experiment were evaluated, and the mean value from at least three independent parallel experiments was determined. Distilled water and phosphite as negative and positive controls, respectively.

[3] = system: pathogen causing downy mildew of grapevine; test: Outdoor test in the vineyard under practical conditions; format: in vivo, Müller-Thurgau grapevine; conditions: HePC 0.2%, no artificial infection, status Jun. 19, 2007
Text: Currently (vegetation period of 2007), HePC (0.2%) is being tested in an outdoor test. In these experiments, the plants in a commercial vineyard (Müller-Thurgau, age about 15 years) are not artificially infected. For this experiment, 3×6 plants (different locations in the vineyard) were employed. In addition, a corresponding untreated control is observed. […] Thus, to date, it has not been possible to observe infestation of the plants treated with HePC, despite of the currently sticky and humid weather (optimum infection conditions) and the very early start of the vegetation period in this year. In contrast, infestation of the control has already been observed.

Plasmopara viticola [4] = test: Downy mildew control on Gutedel seedlings; format: in vivo, Plasmopara viticola on Gutedel seedlings; conditions: for Infestation incidence (%) / Infestation intensity (%): evaluated after 10 days
Procedure: The examinations were performed with seedlings of the variant “Gutedel”, the seedlings having 3-4 leaves and a height of 8-12 cm at the time of application. HePC (0.01 and 0.001%) was applied with a rotary plate automated spraying device (about 1.2 bar spraying pressure) for 20 seconds. For each concentration, 6 plants were treated, which also applied to the positive control (infection, no treatment) and negative control (no infection, no treatment).
After the leaves had dried, the plants were infected/sprayed with Plasmopara viticola (spore suspension (100,000 spores/ml)) and further kept at 21° C. and 100% RH in a cycle of 16 h of day and 8 h of night.
The proportion of leaves infested (incidence) and the intensity of infestation, i.e., the infested proportion of the leaf areas, were evaluated.

Plasmopara viticola [5] = test: Downy mildew control on intact greenhouse plants; format: in vivo, Plasmopara viticola on Vitis vinifera cv. Müller-Thurgau; conditions: for II (%) per REP / II (%) per variant: infestation intensity; for RW II IF (%): relation value for infestation frequency vs control; for RW II II (%): relation value for infestation intensity vs control
Procedure: Greenhouse plants of the variety Müller-Thurgau (Vitis vinifera cv. Müller-Thurgau) served as the starting material. At least three plants each in the ten leaf stage were employed per test solution. HePC was applied (sprayed with the application device System Schachtner) in concentrations of 0.01%, 0.05% and 0.1%. In an additional experiment with 0.01% HePC, the same concentration of HePC (0.01%) was additionally applied one week before (2×HePC). After 24 h from the application of the test solutions, the plants were infected with the pathogen causing downy mildew (Plasmopara viticola). Six days after the infection, the sporulation of Plasmopara viticola was induced, and then the infestation intensity was established.
Thus, the percent proportion of the sporulating surface area relative to the entire surface area of each leaf was visually observed. For each substance and concentration, the leaves of at least three plants were evaluated, and the mean value determined. The application of distilled water served as a negative control. The experiment was repeated twice.

[6] = HePC 0.05%, infestation frequency

Q: Which results are given for `CCCCCCCCCCCCCCCCOP(=O)([O-])OCC[N+](C)(C)C` [HePC, hexadecylphosphocholine]?
A: Δ (pH) ([1]; HePC final concentration 0.00025%): 0.03; Δ (pH) ([1]; HePC final concentration 0.00050%): 0.16; Δ (pH) ([1]; HePC final concentration 0.00075%): 0.25; Δ (pH) ([1]; HePC final concentration 0.00100% (w/v)): 0.41; Average infestation intensity (Plasmopara viticola [2]; HePC 0.0001%): 5.0 and 2.9; No. of leaf disks at scale point 1 (no sporulation) (Plasmopara viticola [2]; HePC 0.0001%): 0; Average infestation intensity (Plasmopara viticola [2]; HePC 0.01%): 1.0; No. of leaf disks at scale point 1 (no sporulation) (Plasmopara viticola [2]; HePC 0.01%): 9; No. of leaf disks at scale point 2 (Plasmopara viticola [2]; HePC 0.01%): 0; No. of leaf disks at scale point 3 (Plasmopara viticola [2]; HePC 0.01%): 0; No. of leaf disks at scale point 4 (Plasmopara viticola [2]; HePC 0.01%): 0; No. of leaf disks at scale point 5 (sporulation all over the surface) (Plasmopara viticola [2]; HePC 0.01%): 0; Average infestation intensity (Plasmopara viticola [2]; HePC 0.1%): 1.0; No. of leaf disks at scale point 1 (no sporulation) (Plasmopara viticola [2]; HePC 0.1%): 9; No. of leaf disks at scale point 2 (Plasmopara viticola [2]; HePC 0.1%): 0; No. of leaf disks at scale point 3 (Plasmopara viticola [2]; HePC 0.1%): 0; No. of leaf disks at scale point 4 (Plasmopara viticola [2]; HePC 0.1%): 0; No. of leaf disks at scale point 5 (sporulation all over the surface) (Plasmopara viticola [2]; HePC 0.1%): 0; prevention of pathogen infestation [3]: good effect; infestation increased by a factor (Plasmopara viticola [4]; 0.001% HePC compared with 0.01% HePC): 10; Infestation incidence (%) (Plasmopara viticola [4]; HePC 0.001%): 43%; Infestation intensity (%) (Plasmopara viticola [4]; HePC 0.001%): 33.9%; leaves infested as compared to the positive control (Plasmopara viticola [4]; HePC 0.01%): 25%; Infestation incidence (%) (Plasmopara viticola [4]; HePC 0.01%): 13%; Infestation intensity (%) (Plasmopara viticola [4]; HePC 0.01%): 3.6%; IF (%) per variant (Plasmopara viticola [5]; HePC 0.01% applied once, infestation frequency): 53.4%; II (%) per REP (Plasmopara viticola [5]; HePC 0.01% applied once): 1.67% and 2.89% and 4.00%; II (%) per variant (Plasmopara viticola [5]; HePC 0.01% applied once): 2.85%; RW II IF (%) (Plasmopara viticola [5]; HePC 0.01% applied once): 23.6% and 23.56%; RW II II (%) (Plasmopara viticola [5]; HePC 0.01% applied once): 73.2% and 73.16%; II (%) per REP (Plasmopara viticola [5]; HePC 0.01%, 2 x (also applied one week before)): 0.20% and 0.80% and 0.11%; IF (%) per variant (Plasmopara viticola [5]; HePC 0.01%, 2 x, infestation frequency): 23.7%; II (%) per variant (Plasmopara viticola [5]; HePC 0.01%, 2 x): 0.37%; RW II IF (%) (Plasmopara viticola [5]; HePC 0.01%, 2 x): 66.1% and 66.09%; RW II II (%) (Plasmopara viticola [5]; HePC 0.01%, 2 x): 96.5% and 96.51%; IF (%) per REP (Plasmopara viticola [5]; [6]): 33.3% and 44.4%; IF (%) per variant (Plasmopara viticola [5]; [6]): 37.0%; II (%) per REP (Plasmopara viticola [5]; HePC 0.05%): 2.22% and 1.33% and 0.33%; II (%) per variant (Plasmopara viticola [5]; HePC 0.05%): 1.30%; RW II IF (%) (Plasmopara viticola [5]; HePC 0.05%): 47.0% and 47.02%; RW II II (%) (Plasmopara viticola [5]; HePC 0.05%): 87.8%; IF (%) per variant (Plasmopara viticola [5]; HePC 0.1%, infestation frequency): 25.0%; II (%) per REP (Plasmopara viticola [5]; HePC 0.1%): 0.11% and 0.33% and 0.89%; II (%) per variant (Plasmopara viticola [5]; HePC 0.1%): 0.36%; RW II IF (%) (Plasmopara viticola [5]; HePC 0.1%): 64.2% and 64.24%; RW II II (%) (Plasmopara viticola [5]; HePC 0.1%): 96.6%
